Assay results from patent US20190269666A1, “COMBINATION THERAPY WITH MERESTINIB AND ANTI-PD-L1 OR ANTI-PD-1 INHIBITORS FOR USE IN THE TREATMENT OF CANCER” (Eli Lilly and Company, priority 2016, published 2019).

System: CT26 colorectal cancer model
Test: Study S010516: merestinib and anti-PD-L1 antibody combinations in CT26 syngeneic mouse tumor model
Format: in vivo
Set-up: key to Mean Tumor Volume: mm³; tumor volume v = l×w²×0.536
Settings: for Mean Tumor Volume: in mm³ (unit assumed)
Protocol: A syngeneic mouse tumor model is used to evaluate potential combination effect of merestinib and anti-PD-L1 antibody is the CT26 colorectal cancer model using the mouse colorectal cancer line CT26. This experiment is conducted in immune competent mice (Grosso and Jure-Kunkel, Cancer Immunity Vol. 13, p. 5, January 2013; Duraiswamy et al, Cancer Research, Jun. 15, 2013 73; 3591.). Anti-PD-L1 antibody surrogate (178G7, LSN3370181) (Eppihimer et al. Microcirculation 2002:9(2):133) is used in the mouse study.
Female BALB/c mice (18-20 gm) from Envigo (Harlan Laboratories) are used for this study. Food and water are available ad libitum. Animals are acclimated for one week prior to any experimental manipulation. The study is performed in accordance with AALAC accredited institutional guidelines.
Merestinib is formulated as a solution in 10% PEG 400 in 90% (20% Captisol in water) once weekly. Anti-PD-L1 antibody (178G7, LSN3370181) is formulated in PBS (phosphate buffered saline).
CT26 cells (from internal in vivo pharmacology cell culture group lot CT26.WT.3184878) are used for implantation. Approximately 1×10^6 cells in HBSS are implanted subcutaneously into the right hind flank of the animal under anesthesia.
Study S010516 has six groups: 1) vehicle control (10% PEG 400 in 90% [20% Captisol in water]) dosed orally once daily for 21 days and dosing initiated at Day 6 post-implant of CT26 cells; 2) single agent anti-PD-L1 antibody (178G7, LSN3370181) dosing via IP at 500 μg/animal once weekly for 3 weeks initiated at Day 6 post-implant of CT26 cells; 3) single agent merestinib at 12 mg/kg once daily orally for 21 days and initiated at Day 6 post-implant of CT26 cells; 4) concurrent combination of merestinib (12 mg/kg once daily for 21 days orally) and anti-PD-L1 antibody (500 μg/animal once weekly via IP for 3 weeks) and initiated at Day 6 post-implant of CT26 cells; 5) sequential combination of merestinib (12 mg/kg once daily for 21 days orally and initiated at Day 6 post-implant of CT26 cells) and anti-PD-L1 antibody (500 μg/animal once weekly via IP for 3 weeks and initiated at Day 13 post-implant of CT26 cells); 6) delayed concurrent combination of merestinib (12 mg/kg once daily for 21 days orally) and anti-PD-L1 antibody (500 μg/animal once weekly via IP for 3 weeks) and initiated at Day 10 post-implant of CT26 cells.
There are 15 animals per group. Five animals per group are taken down on Day 20 post-implant of CT26 cells for the harvesting of spleens and tumors for the interrogation of the effect of the combination of merestinib and anti-PD-L1 antibody combination on immune functions. Ten animals per group remain for the duration of the study unless, as pre-defined in the study protocol, the animal is to be sacrificed if the tumor volume exceeds 2500 mm^3 or is ulcerated. Tumor volumes and body weight are measured bi-weekly. Tumor volume is estimated by using the formula: v=l×w2×0.536 where l=larger of measured diameter and w=smaller of perpendicular diameter.
The last dose of drug is received on Day 20, Day 27, Day 27, Day 27 and Day 31, respectively, for group 2, group 3, group 4, group 5 and group 6. On Day 64, about 1 month to 1.5 months after completing drug-dosing, animals that are still alive and with tumor response classified as PR (partial responder) or CR (complete responder) are re-challenged with a new implantation of CT26 tumor cells (1×10^6 cells in HBSS) subcutaneously into the contralateral side of the hind flank (left side) of the animal under anesthesia. The definition of PR and CR is in the statistical method section below. Three naïve animals (study protocol S035116) are used as control and are implanted with the same batch of CT26 tumor cells (1×10^6 cells in HBSS) subcutaneously into the left hind flank of the animal under anesthesia. Tumor growth is monitored and measured in the animals. […]

[1] = animals of 10/group, tumor volume ≤25 mm^3

SMILES: Cc1ccc(C(=O)Nc2ccc(Oc3cc4cnn(C)c4cc3-c3cn[nH]c3)c(F)c2)c(=O)n1-c1ccc(F)cc1 [merestinib, N-(3-fluoro-4-(1-methyl-6-(1H-pyrazol-4-yl)-1H-indazol-5-yloxy)phenyl)-1-(4-fluorophenyl)-6-methyl-2-oxo-1,2-dihydropyridine-3-carboxamide]
- tumor growth after cessation of dosing (12 mg/kg, after the 21 day dosing period, Days 33-40): grew exponentially
- % Response (% ΔT/C above baseline, % Regression below baseline) (Day 8): −65.5%
- Mean Tumor Volume (Day 8): 64.7
- % Response (% ΔT/C above baseline, % Regression below baseline) (Day 12): −29.4%
- Mean Tumor Volume (Day 12): 132.5
- % Response (% ΔT/C above baseline, % Regression below baseline) (Day 15): 14.6%
- Mean Tumor Volume (Day 15): 206.6
- % Response (% ΔT/C above baseline, % Regression below baseline) (Day 19): 53.7%
- Mean Tumor Volume (Day 19): 357.7
- % Response (% ΔT/C above baseline, % Regression below baseline) (Day 22): 35.6%
- Mean Tumor Volume (Day 22): 491.5
- % Response (% ΔT/C above baseline, % Regression below baseline) (Day 25): 31.3%
- Mean Tumor Volume (Day 25): 717.0
- % Response (% ΔT/C above baseline, % Regression below baseline) (Day 28): 24.8%
- Mean Tumor Volume (Day 28): 845.3
- % Response (% ΔT/C above baseline, % Regression below baseline) (Day 33): 27.1%
- Mean Tumor Volume mm^3 (Day 33): 1609.0 mm^3
- T/C % (Day 33): 31.2%
- anti-tumor effect as compared to vehicle control (Day 33 / end of dosing): significant anti-tumor effect
- Difference (Treatment 1 − Treatment 2), log scale tumor volume (Day 33, Treatment 1 = Vehicle control): 0.529
- Mean Tumor Volume (Day 33): 1608.2
- Day 33 Treatment Responders GD (Growth Delay) (animals of 10/group): 1
- Day 33 Treatment Responders PD (Progressive Disease) (animals of 10/group): 9
- Day 33 Treatment Responders PR (Partial Response) (animals of 10/group): 0
- Day 64 Treatment Responders GD (Growth Delay) (animals of 10/group): 1
- Day 64 Treatment Responders PD (Progressive Disease) (animals of 10/group): 9
- Day 64 Treatment Responders PR (Partial Response) (animals of 10/group): 0
- Day 33 Treatment Responders CR (Complete and durable Regression) [1]: 0
- Day 64 Treatment Responders CR (Complete and durable Regression) [1]: 0
